US20240307362A1 (priority 2019, published 2024)
Read-outs that look alike come from different tables or passages of the source.

Key:
human Bub1 = human Bub1 (Homo sapiens (Human), UniProt O43683); experiment: Bub1 high ATP kinase assay (TR-FRET); assay type: biochemical
From the text: Bub1-inhibitory activity of compounds of the present invention at a high ATP concentration was quantified employing the Bub1 TR-FRET high ATP kinase assay as described in the following paragraphs.
N-terminally His6-tagged recombinant catalytic domain of human Bub1 (amino acids 704-1085), expressed in insect cells (Hi5) and purified by Ni-NTA affinity chromatography and subsequent size exclusion chromatography, was used as enzyme.

Ba/F3-EGFR-insSVD = experiment: Ba/F3 cell survival assay, EGFR-insSVD; assay type: cell-based
Protocol: (§1) 293T cells from ATCC were transfected with pBABEpuro expression constructs for WT EGFR or EGFR-insSVD and pCL-Eco packaging vector using Fugene-6 transfection reagent from Promega. Plates were incubated at 37° C. for 48 h. Retrovirus was harvested by filtering the media supernatant through a 0.45 μm filter.
(§2) Ba/F3 cells purchased from DSMZ were grown in RPMI+10% FBS+10 ng/mL IL-3 and infected with filtered retroviral supernatant at a 1:2 dilution. Polybrene was added to a concentration of 8 μg/mL, plates were spun for 90 min, and incubated overnight at 37° C. 2 μg/mL puromycin was added to the infected cells 24 h after infection and cells were continually grown in the presence of puromycin and 10 ng/mL IL-3. Following stably expressing Ba/F3 cell lines were generated: Ba/F3-EGFR-WT, Ba/F3-EGFR-insSVD, (Ba/F3-vector-control).
For cell survival assays, Ba/F3 cells were grown to a density of 1-2 million cells per mL, spun down and resuspended in media without IL-3, and replated at a concentration 200,000-500,000 cells per mL. The cells ectopically expressing WT EGFR or EGFR-insSVD were plated with 10 ng/mL Millipore Culture grade EGF. The cells ectopically expressing pBABEpuro empty vector were plated with 10 ng/mL IL-3.
2 days later, cells were plated in 50 μL in a 384 well plate at a concentration of 4000 cells per well for cells assayed in the absence of IL-3 and 2000 cells per well for cells assayed in the presence of IL-3. 100 nL of compound was added to each well using a 100 nL pin head, and plates were incubated at 37° C. for 48 h.
Cell viability was measured by adding 20 μL of Cell Titer-Glo Luminescent Cell Viability Reagent diluted 1:3 in PBS. Plates were sealed with Perkin Elmer Top-Seal, inverted several times to mix, and immediately centrifuged at 1000 rpm for 2 min. Plates were incubated in low light conditions for 8-10 min and luminescence was measured.

Ba/F3-EGFR-WT = experiment: Ba/F3 cell survival assay, WT EGFR; assay type: cell-based
Protocol: as §1, §2
The cells ectopically expressing WT EGFR or EGFR-insSVD were plated with 10 ng/mL Millipore Culture grade EGF. The cells ectopically expressing pBABEpuro empty vector were plated with 10 ng/mL IL-3.
100 nL of compound was added to each well using a 100 nL pin head, and plates were incubated at 37° C. for 48 h.
Cell viability was measured by adding 20 μL of Cell Titer-Glo Luminescent Cell Viability Reagent diluted 1:3 in PBS. Plates were sealed with Perkin Elmer Top-Seal, inverted several times to mix, and immediately centrifuged at 1000 rpm for 2 min.

[1] = read-out: Bub1 high ATP (2 mM) IC50, 2 mM ATP
[2] = Mus musculus, BaF3, 48 h, read-out: BA/F3 (insSVD) IC50, cell viability, Cell Titer-Glo, 48 h, with 10 ng/mL EGF, without IL-3
[3] = Mus musculus, BaF3, 48 h, read-out: BA/F3 (wild type) IC50, cell viability, Cell Titer-Glo, 48 h, with 10 ng/mL EGF, without IL-3
[4] = Bub1 high ATP (2 mM) IC50, 2 mM ATP
[5] = read-out: BA/F3 (insSVD) IC50, cell viability, Cell Titer-Glo, 48 h, with 10 ng/mL EGF, without IL-3
[6] = read-out: BA/F3 (wild type) IC50, cell viability, Cell Titer-Glo, 48 h, with 10 ng/mL EGF, without IL-3

human Bub1, sequence (O43683 704-1085): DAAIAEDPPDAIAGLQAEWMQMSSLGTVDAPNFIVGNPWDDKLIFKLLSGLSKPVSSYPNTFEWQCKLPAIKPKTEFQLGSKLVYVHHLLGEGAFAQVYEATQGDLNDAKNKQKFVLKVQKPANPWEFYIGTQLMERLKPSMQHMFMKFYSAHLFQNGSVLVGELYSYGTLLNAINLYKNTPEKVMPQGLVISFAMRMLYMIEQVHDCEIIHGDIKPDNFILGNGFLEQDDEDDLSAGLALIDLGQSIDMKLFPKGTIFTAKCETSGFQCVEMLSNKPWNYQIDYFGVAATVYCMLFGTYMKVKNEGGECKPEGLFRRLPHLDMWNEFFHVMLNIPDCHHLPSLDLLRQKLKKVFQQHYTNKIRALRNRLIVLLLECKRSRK

Row | SMILES | IC50 (human Bub1; [1]) | IC50 (Ba/F3-EGFR-insSVD; [2]) | IC50 (Ba/F3-EGFR-WT; [3]) | IC50 (human Bub1; [4]) | IC50 (Ba/F3-EGFR-insSVD; [5]) | IC50 (Ba/F3-EGFR-WT; [6])
1 | COc1c(Cl)cccc1Nc1c(-c2ccncc2OCC2OCC2(C)C)[nH]c2c1C(=O)NCC2 (racemic) [Example 49, 3-(3-chloro-2-methoxyanilino)-2-{3-[(3,3-dimethyloxetan-2-yl)methoxy]pyridin-4-yl}-1,5,6,7-tetrahydro-4H-pyrrolo[3,2-c]pyridin-4-one] | > 20000 nM | 12.5 nM | 426 nM |  |  | 
2 | COc1c(F)cccc1Nc1c(-c2ccncc2OCC2OCC2(C)C)[nH]c2c1C(=O)NCC2 (racemic) [Example 52, 2-{3-[(3,3-dimethyloxetan-2-yl)methoxy]pyridin-4-yl}-3-(3-fluoro-2-methoxyanilino)-1,5,6,7-tetrahydro-4H-pyrrolo[3,2-c]pyridin-4-one] | > 20000 nM | 38.1 nM | 535 nM |  |  | 
3 | Cc1cccc(Nc2c(-c3ccncc3OCC3OCC3(C)C)[nH]c3c2C(=O)NCC3)c1Cl (racemic) [Example 58, 3-(2-chloro-3-methylanilino)-2-{3-[(3,3-dimethyloxetan-2-yl)methoxy]pyridin-4-yl}-1,5,6,7-tetrahydro-4H-pyrrolo[3,2-c]pyridin-4-one] | > 20000 nM | 106 nM | 1430 nM |  |  | 
4 | COc1c(Cl)cc(F)cc1Nc1c(-c2ccncc2OCC2CCO2)[nH]c2c1C(=O)NCC2 (racemic) [Example 65, 3-(3-chloro-5-fluoro-2-methoxyanilino)-2-(3-{[oxetan-2-yl]methoxy}pyridin-4-yl)-1,5,6,7-tetrahydro-4H-pyrrolo[3,2-c]pyridin-4-one] | > 20000 nM | 89.8 nM | 911 nM |  |  | 
5 | CC1(COc2cnccc2-c2[nH]c3c(c2Nc2cccc(Cl)c2OC(F)F)C(=O)NCC3)CCO1 (racemic) [Example 74, 3-[3-chloro-2-(difluoromethoxy)anilino]-2-(3-{[2-methyloxetan-2-yl]methoxy}pyridin-4-yl)-1,5,6,7-tetrahydro-4H-pyrrolo[3,2-c]pyridin-4-one] | > 20000 nM | 134 nM | 1250 nM |  |  | 
6 | COc1c(Br)cccc1Nc1c(-c2ccncc2OCC2CCO2)[nH]c2c1C(=O)NCC2 (single isomer, unassigned) [Example 34, 3-(3-bromo-2-methoxyanilino)-2-{3-[(oxetan-2-yl)methoxy]pyridin-4-yl}-1,5,6,7-tetrahydro-4H-pyrrolo[3,2-c]pyridin-4-one] |  |  |  | > 20000 nM | 20.4 nM | 519 nM
7 | COc1c(Br)cccc1Nc1c(-c2ccncc2OCC2CCO2)[nH]c2c1C(=O)NCC2 (single isomer, unassigned) [Example 35, 3-(3-bromo-2-methoxyanilino)-2-{3-[(oxetan-2-yl)methoxy]pyridin-4-yl}-1,5,6,7-tetrahydro-4H-pyrrolo[3,2-c]pyridin-4-one] |  |  |  | 4970 nM | 206 nM | 1360 nM
8 | Cc1c(Cl)cc(F)cc1Nc1c(-c2ccncc2OCC2CCO2)[nH]c2c1C(=O)NCC2 (single isomer, unassigned) [Example 41, 3-(3-chloro-5-fluoro-2-methylanilino)-2-{3-[(oxetan-2-yl)methoxy]pyridin-4-yl}-1,5,6,7-tetrahydro-4H-pyrrolo[3,2-c]pyridin-4-one] |  |  |  | 6350 nM | 346 nM | 1780 nM
9 | Cc1c(Cl)cc(F)cc1Nc1c(-c2ccncc2OCC2CCO2)[nH]c2c1C(=O)NCC2 (single isomer, unassigned) [Example 42, 3-(3-chloro-5-fluoro-2-methylanilino)-2-{3-[(oxetan-2-yl)methoxy]pyridin-4-yl}-1,5,6,7-tetrahydro-4H-pyrrolo[3,2-c]pyridin-4-one] |  |  |  | > 20000 nM | 72.5 nM | 553 nM
10 | COc1c(F)cccc1Nc1c(-c2ccncc2OCCC2CCO2)[nH]c2c1C(=O)NCC2 (single isomer, unassigned) [Example 44, 3-(3-fluoro-2-methoxyanilino)-2-{3-[2-(oxetan-2-yl)ethoxy]pyridin-4-yl}-1,5,6,7-tetrahydro-4H-pyrrolo[3,2-c]pyridin-4-one] |  | 34.1 nM | 903 nM | > 20000 nM |  | 
11 | COc1c(F)cccc1Nc1c(-c2ccncc2OCCC2CCO2)[nH]c2c1C(=O)NCC2 (single isomer, unassigned) [Example 45, 3-(3-fluoro-2-methoxyanilino)-2-{3-[2-(oxetan-2-yl)ethoxy]pyridin-4-yl}-1,5,6,7-tetrahydro-4H-pyrrolo[3,2-c]pyridin-4-one] |  |  |  | 12700 nM | 46.4 nM | 746 nM
12 | O=C1NCCc2[nH]c(-c3ccncc3OCCC3CCO3)c(Nc3cccc(Cl)c3Cl)c21 (single isomer, unassigned) [Example 63, 3-(2,3-dichloroanilino)-2-(3-{2-[oxetan-2-yl]ethoxy}pyridin-4-yl)-1,5,6,7-tetrahydro-4H-pyrrolo[3,2-c]pyridin-4-one] | 5510 nM | 31.4 nM | 567 nM |  |  | 
13 | O=C1NCCc2[nH]c(-c3ccncc3OCCC3CCO3)c(Nc3cccc(Cl)c3Cl)c21 (single isomer, unassigned) [Example 64, 3-(2,3-dichloroanilino)-2-(3-{2-[oxetan-2-yl]ethoxy}pyridin-4-yl)-1,5,6,7-tetrahydro-4H-pyrrolo[3,2-c]pyridin-4-one] |  |  |  | 5380 nM | 23 nM | 726 nM
14 | COc1c(Cl)cc(F)cc1Nc1c(-c2ccncc2OCC2CCO2)[nH]c2c1C(=O)NCC2 (single isomer, unassigned) [Example 66, 3-(3-chloro-5-fluoro-2-methoxyanilino)-2-(3-{[oxetan-2-yl]methoxy}pyridin-4-yl)-1,5,6,7-tetrahydro-4H-pyrrolo[3,2-c]pyridin-4-one] |  |  |  | > 20000 nM | 140 nM | 1500 nM
15 | CC1(C)COC1COc1cnccc1-c1[nH]c2c(c1Nc1cccc(Cl)c1OC(F)F)C(=O)NCC2 (single isomer, unassigned) [Example 72, 3-[3-chloro-2-(difluoromethoxy)anilino]-2-(3-{[3,3-dimethyloxetan-2-yl]methoxy}pyridin-4-yl)-1,5,6,7-tetrahydro-4H-pyrrolo[3,2-c]pyridin-4-one] |  |  |  | > 20000 nM | 436 nM | 2740 nM
16 | CC1(C)COC1COc1cnccc1-c1[nH]c2c(c1Nc1cccc(Cl)c1OC(F)F)C(=O)NCC2 (single isomer, unassigned) [Example 73, 3-[3-chloro-2-(difluoromethoxy)anilino]-2-(3-{[3,3-dimethyloxetan-2-yl]methoxy}pyridin-4-yl)-1,5,6,7-tetrahydro-4H-pyrrolo[3,2-c]pyridin-4-one] | > 20000 nM |  | 1910 nM |  | 92.3 nM | 
17 | CC1(COc2cnccc2-c2[nH]c3c(c2Nc2cccc(Cl)c2OC(F)F)C(=O)NCC3)CCO1 (single isomer, unassigned) [Example 76, 3-[3-chloro-2-(difluoromethoxy)anilino]-2-(3-{[2-methyloxetan-2-yl]methoxy}pyridin-4-yl)-1,5,6,7-tetrahydro-4H-pyrrolo[3,2-c]pyridin-4-one] | > 20000 nM |  |  |  | 291 nM | 1880 nM
18 | O=C1NCCc2[nH]c(-c3ccncc3OCC3CCO3)c(Nc3cccc(Cl)c3Cl)c21 (single isomer, unassigned; (+)) [Example 11, (+)-3-(2,3-dichloroanilino)-2-{3-[(oxetan-2-yl)methoxy]pyridin-4-yl}-1,5,6,7-tetrahydro-4H-pyrrolo[3,2-c]pyridin-4-one] | > 20000 nM | 147 nM | 767 nM |  |  | 
